Test results as given in publication PMC4721142, “Randomized controlled studies on the efficacy of antiarthritic agents in inhibiting cartilage degeneration and pain associated with progression of osteoarthritis in the rat” (Arthritis Research & Therapy, 2016).
Values joined by “and” are separate entries in the source; they are usually repeats but may differ in a detail not shown here. Equal entries are not always repeated.

What was measured:
[1] = Comparison of in vitro screens: overlapping effective and nontoxic range;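 also: compares non-toxic ranges in synovial cells and chondrocytes with effective ranges against NFkB, MMP-13 and osteoclasts, giving their overlap as the predicted efficacy range in uM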
[2] = system: Normal human articular chondrocytes; test: Cytotoxicity to chondrogenic pellets (CellTiter-Blue)
Description: Differentiated chondrogenic pellets were used both to test the ability of drugs to block MMP-13 activity and to test for drug toxicity. […] Supernatants were collected and analyzed for MMP-13 using an enzyme-linked immunosorbent assay (GE Healthcare Life Sciences, Little Chalfont, UK). Cytotoxicity to pellets was assessed using CellTiter-Blue (Promega).

[3] = system: RAW 264.7 cells; test: RANKL-mediated osteoclastogenesis / matrix resorption (Osteologic) assay; type: cell-based, murine
Summary of the method: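 Agents were tested during or after differentiation. Wells were bleached and resorption pits were quantified by image analysis versus RANKL-only controls, using an unpaired t-test.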

[4] = system: SW982; test: Synovial toxicity (CellTiter-Glo), with or without TNF-α
Description: Viability was measured with the CellTiter-Glo luminescent viability assay (Promega). […] To more accurately predict the effects of the drugs on osteoarthritic synovium, cells were tested with or without TNF-α (20 ng/ml; BioSource).
In Vitro Toxicity Testing with a Synovial Cell Line
Compounds were tested for synovial toxicity using SW982 cells alone or in the presence of TNF as

[5] = published half-life; cited from earlier work
[6] = system: MMT/MCLT rat model of OA; test: MMT/MCLT trial 2 histopathology (same doses); type: in vivo; set-up: key to Total joint score w/o femur / Total joint score: sum: cartilage degeneration scores + mean osteophyte score; conditions: mean; i.a., tacrolimus 15 ng
Description: For MMT/MCLT rat knee joints, sections were cut in 200-μm steps; stained with toluidine blue (also with a right and left half per section); and similarly analyzed for cartilage degeneration, proteoglycan loss, collagen damage, and osteophyte formation. Results were averaged across the three sections for an overall semiquantitative score. Regional differences across the tibial plateau were taken into consideration by dividing each section into three zones delineated using an ocular micrometer (outside, middle, and inside). Scores were based on the percentage of area affected within the zone.
Cartilage degeneration in the tibia was scored on a 5-point scale as detailed in the Methods section of Additional file 1. The total extent of degeneration of the tibial plateau was measured (in micrometers) and included an analysis of cell loss, proteoglycan loss, and collagen damage. Significant cartilage degeneration reflecting any degeneration extending through more than 50 % of the cartilage thickness was also measured. Collagen damage across the medial tibial plateau (the most severely affected section of the two halves) was also quantified.
Osteophytes and femoral cartilage degeneration were analyzed as detailed in Additional file 1. Scoring of the osteophytes and categorization into small, medium, and large was performed using an ocular micrometer. The actual osteophyte measurement (tidemark to farthest distance point extending toward the synovium) was also recorded. The femoral cartilage degeneration score and the three-zone sum of the tibial cartilage degeneration scores (mean of three levels) were summed to create a total cartilage degeneration score. The mean osteophyte score for each joint was added to this value to create a total joint score. […]
Histopathology MMT/MCLT Model

[7] = system: MMT/MCLT rat model of OA; test: MMT/MCLT trial 1 histopathology (same doses); type: in vivo; set-up: key to Tibial cartilage degeneration score, 3-zone total: sum of three tibial zone scores (each on 5-point scale); key to Total joint score w/o femur / Total joint score / Total joint score without femur: sum: cartilage degeneration scores + mean osteophyte score; conditions: for % decrease, bone score / % decrease, femoral cartilage degeneration score / % decrease, osteophyte measure / % decrease, osteophyte score / % decrease, significant degeneration width / % decrease, tibial score 3-zone total / % decrease, tibial score zone 1 / % decrease, tibial score zone 2 / % decrease, tibial score zone 3 / % decrease, total degeneration width / % decrease, total joint score / % decrease, total joint score w/o femur: vs saline group
Summary of the method: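 Rat knee joints were sectioned in 200-μm steps and stained with toluidine blue. Tibial cartilage degeneration was scored on a 5-point scale in three zones and summed with femoral scores, plus osteophyte scores, to give a total joint score. Results were averaged over three sections.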

[8] = individual animals, fluocinolone 10 μg/kg, 21 days
[9] = mean, tacrolimus 0.6 mg/kg, fluocinolone 10 μg/kg
[10] = mean, tacrolimus 0.6 mg/kg, fluocinolone 10 μg/kg, listed as fluocinolone
[11] = vs group 1, fluocinolone 10 μg/kg
[12] = tacrolimus 0.6 mg/kg, fluocinolone 10 μg/kg

## CC1(C)O[C@@H]2C[C@H]3[C@@H]4C[C@H](F)C5=CC(=O)C=C[C@]5(C)[C@@]4(F)[C@@H](O)C[C@]3(C)[C@]2(C(=O)CO)O1 [Fluocinolone, Fluocinolone Acetonide]
[1]
  Non-toxic & predicted range of efficacy: 3.1 to 250 µM
[1]; inhibits with minimal or no toxicity to synovium or cartilage, overlapping range if effective in more than one assay
  Overlapping effective and nontoxic range: 3.1 to 100 µM
[2]
  Non-toxic range (Chondrocyte): 1.56 to 250 µM
[3]
  Effective range against Osteoclasts: ≥ 9.77 nM
[3]; Mus musculus, RAW264.7, 168 h, read-out: Lowest inhibitory concentration, matrix resorption
  minimal effective concentration: 0.00977 µM
[4]
  Non-toxic range (Synovial): 1.56 to 100 µM
[5]
  t 1/2: Corticosteroid (potent) Blocks IL-1 and TNF production and TNF-induced apoptosis [92] t 1/2 = 1.3 – 1.7 h
[6]
  Femoral cartilage degeneration score: 0.8 ± 0.25
  Total joint score: 9.80 ± 0.51
[7]; [8]
  Bone score: 3.00 and 2.00 and 4.00 and 1.00
  Femoral cartilage degeneration score: 1.00 and 2.00 and 3.00 and 2.33 and 1.33
  Tibial cartilage degeneration score, 3-zone total: 4.67 and 5.00 and 6.33 and 7.00 and 7.67 and 5.33 and 6.00
  Tibial cartilage degeneration score, zone 1: 3.00 and 4.33 and 3.33 and 4.67 and 4.00
  Tibial cartilage degeneration score, zone 2: 1.67 and 2.00 and 1.33 and 2.33 and 2.67
  Tibial cartilage degeneration score, zone 3: 0.00 and 0.33
  Tibial cartilage degeneration width, significant: 466.67 μm and 433.33 μm and 633.33 μm and 766.67 μm and 800.00 μm and 566.67 μm and 666.67 μm
  Tibial cartilage degeneration width, total: 1400.00 μm and 1066.67 μm and 1133.33 μm and 1000.00 μm and 1600.00 μm and 1266.67 μm and 1100.00 μm
  Tibial osteophyte measure: 333.33 μm and 413.33 μm and 280.00 μm and 426.67 μm and 586.67 μm and 400.00 μm and 380.00 μm
  Tibial osteophyte score: 2.00 and 2.33 and 3.00 and 1.33 and 4.67 and 2.67
  Total joint score: 7.67 and 8.33 and 11.33 and 9.00 and 12.33 and 15.33 and 9.67 and 10.67
  Total joint score without femur: 6.67 and 7.33 and 9.33 and 6.00 and 10.00 and 12.33 and 8.33 and 8.67
[7]; mean, low or only dose
  Bone score: 2.38
  Femoral cartilage degeneration score: 1.33 and 1.33 ± 0.14
  Tibial cartilage degeneration score, 3-zone total: 6.08
  Tibial cartilage degeneration score, zone 1: 4.17
  Tibial cartilage degeneration score, zone 2: 1.88
  Tibial cartilage degeneration score, zone 3: 0.04
  Tibial cartilage degeneration width, significant: 608.33 µm
  Tibial cartilage degeneration width, total: 1154.17 µm
  Tibial osteophyte measure: 455.00 µm
  Tibial osteophyte score: 3.33
  Total joint score: 10.75 and 10.75 ± 0.61
  Total joint score w/o femur: 9.42
[7]; [9]
  Bone score: 2.63
  Femoral cartilage degeneration score: 1.96 ± 0.77
  Tibial cartilage degeneration score, 3-zone total: 5.83
  Tibial cartilage degeneration score, zone 1: 3.88
  Tibial cartilage degeneration score, zone 2: 1.92
  Tibial cartilage degeneration score, zone 3: 0.04
  Tibial cartilage degeneration width, significant: 595.83 μm
  Tibial cartilage degeneration width, total: 1212.50 μm
  Tibial osteophyte measure: 394.17 μm
  Tibial osteophyte score: 2.75
  Total joint score: 10.54 ± 0.88
  Total joint score w/o femur: 8.58
[7]; [10]
  Femoral cartilage degeneration score: 1.96
  Total joint score: 10.54
[7]; tacrolimus 0.3 mg/kg, fluocinolone 5 ug/kg
  % increase, area of viable cartilage matrix: 17%
[7]; tacrolimus 0.6 mg/kg, fluocinolone 10 ug/kg
  % increase, area of viable cartilage matrix: 20%
[7]; [11]
  Percentage, bone score: 0.19
  Percentage, femoral cartilage degeneration score: −0.07
  Percentage, osteophyte measure: 0.23
  Percentage, osteophyte score: 0.30
  Percentage, significant degeneration width: 0.18
  Percentage, tibial score zone 1: 0.10
  Percentage, tibial score zone 2: 0.13
  Percentage, tibial score zone 3: 0.00
  Percentage, total degeneration width: 0.08
  Percentage, total joint score: 0.14
  Percentage, total joint score without femur: 0.18
[7]; low or only dose
  % decrease, bone score: 27%
  % decrease, femoral cartilage degeneration score: 27%
  % decrease, osteophyte measure: 11%
  % decrease, osteophyte score: 15%
  % decrease, significant degeneration width: 16%
  % decrease, tibial score 3-zone total: 7%
  % decrease, tibial score zone 1: 3%
  % decrease, tibial score zone 2: 15%
  % decrease, tibial score zone 3: 0%
  % decrease, total degeneration width: 12%
  % decrease, total joint score: 13%
  % decrease, total joint score w/o femur: 10%
[7]; [12]
  % decrease, bone score: 19%
  % decrease, femoral cartilage degeneration score: -7%
  % decrease, osteophyte measure: 23%
  % decrease, osteophyte score: 30%
  % decrease, significant degeneration width: 18%
  % decrease, tibial score 3-zone total: 11%
  % decrease, tibial score zone 1: 10%
  % decrease, tibial score zone 2: 13%
  % decrease, tibial score zone 3: 0%
  % decrease, total degeneration width: 8%
  % decrease, total joint score: 14%
  % decrease, total joint score w/o femur: 18%
